Some results are limits rather than exact numbers.

By IC50 is commonly meant the concentration at which inhibition is half-maximal.

This experiment can be described thus: Inhibition of Saccharomyces cerevisiae alpha-Glucosidase using p-nitrophenyl-alpha-D-glucopyranoside as substrate assessed as formation of para-nitrophenol preincubated for 5 mins followed by addition of substrate measured after 15 mins by microplate reader analysis.
For `COc1cc(O)cc(C(=O)O)c1C(=O)c1c(O)c(Cl)c(C)c(Cl)c1O`, the IC50 was determined as 42 nM.
To `COc1cc(/C=C2\OC(=O)C(c3ccc(O)cc3)=C2O)ccc1O` belongs 22 nM; to `COC(=O)[C@]1(Cc2ccc(O)c(CC=C(C)C)c2)OC(=O)C(OC)=C1c1ccc(O)c(O)c1`, 16 nM.
Consider `COC(=O)c1cc(O)cc(O)c1C(=O)c1c(O)c(Cl)c(C)c(Cl)c1O`, for which the IC50 was above 2000 nM.
The result for `COC(=O)c1cc(O)cc(OC)c1Oc1cc(C)c(Cl)c(O)c1C(=O)O` reads above 2000 nM; that for `COC(=O)[C@]1(Cc2ccccc2)OC(=O)C(O)=C1c1ccccc1`, 385 nM; that for `COC(=O)[C@]1(Cc2ccc(O)cc2)OC(=O)C(O)=C1c1ccc(O)cc1`, 126 nM.
The result for `COc1cc(/C=C2\OC(=O)C(c3ccc(O)cc3)=C2O)cc(OC)c1O` reads 79 nM; that for `COc1cc(O)cc(C(=O)O)c1Oc1cc(C)cc(O)c1C(=O)O`, above 2000 nM.
To `COC(=O)c1c(O)c(Cl)c(C)c(Cl)c1Oc1c(OC)cc(O)cc1C(=O)O` belongs 1480 nM.
Consider `COC(=O)c1cc(O)cc(OC)c1Oc1cc(CO)cc(O)c1C(=O)O`, for which the concentration for half-maximal inhibition (IC50) was above 2000 nM.
To `C[C@@H]1O[C@@H](O[C@@H]2[C@@H](O)[C@H](O)[C@H](O[C@H]3[C@H](O)[C@@H](O)C(O)O[C@@H]3CO)O[C@H]2CO)[C@@H](O)[C@H](O)[C@H]1N[C@H]1C=C(CO)[C@@H](O)[C@H](O)[C@H]1O` (some centres undefined) belongs 685 nM; to `COC(=O)c1cc(O)cc(O)c1C(=O)c1c(O)cc(C)cc1O`, 199 nM.
As to `O=C1O/C(=C\c2ccc(O)cc2)C(O)=C1c1ccc(O)cc1` [ASPULVINONE E], the IC50 came out at 2700 nM.
The result for `COC(=O)c1cc(O)cc(OC)c1Oc1cc(C)cc(O)c1C(=O)O` [ASTERRIC ACID] reads above 2000 nM; that for `COC(=O)c1cc(O)cc(OC)c1Oc1c(Cl)c(C)c(Cl)c(O)c1C(=O)O` [GEODIN HYDRATE], 91 nM.
To `COC(=O)c1cc(O)cc(OC)c1Oc1cc(C)c(Cl)c(O)c1C(=O)OC` [METHYL CHLOROASTERRATE] belongs above 2000 nM; to `COC(=O)c1cc(O)cc(OC)c1Oc1c(Cl)c(C)c(Cl)c(O)c1C(=O)OC` [METYL DICHLOROASTERRATE], 1450 nM.
Take `O=c1c(O)c(-c2ccc(O)c(O)c2)oc2cc(O)cc(O)c12` [QUERCETIN]: the 50% inhibitory concentration (IC50) was found to be 15 nM.

The record behind these values is ChEMBL document CHEMBL3751763, “Polyketide butenolide, diphenyl ether, and benzophenone derivatives from the fungus Aspergillus flavipes PJ03-11” (Bioorg Med Chem Lett, 2016).
